# Laboratory results from US8158623B2, “Heptacyclic compounds and the pharmaceutical uses thereof for preventing and treating diabetes and metabolic syndrome” (Shanghai Institute of Materia Medica Chinese Academy of …, priority 2007, dated 2012).
# Several values for one entry are separate records, joined by “and”; a condition that tells them apart may be missing. Equal entries are not always repeated.
# Experiments:
# ob/ob mice [1] = test: Hypoglycemic effect of compound F7, fasting blood glucose, 3 weeks; assay type: in vivo; details: oral 50 mg/kg once daily
# Description: (§1) Genetic spontaneous diabetes ob/ob mice were purchased from Jackson (USA), and maintained in a SPF facility (temperature: 22-24° C., humidity: 45-80%, illumination: 150-300 Lx, 12/12-hour light/dark cycle). Fasting blood glucose was determined for 3 days continuously when the mice were 7 weeks old. The mice were grouped into the treatment group and the control group (8 animals per group) according to the results determined. The two groups were administered orally with compound F7 (50 mg/kg) and a solution of 0.1% Tween 80 respectively, once daily for 3 weeks. Fasting Blood Glucose levels of mice were measured regularly.
# ob/ob mice [2] = test: Fasting blood glucose in ob/ob mice, several heptacyclic compounds, 8 days; assay type: in vivo
# Description: Genetic spontaneous diabetes ob/ob mice were purchased from Jackson (USA), and maintained in a SPF facility (temperature: 22-24° C., humidity: 45-80%, illumination: 150-300 Lx, 12/12-hour light/dark cycle). Fasting blood glucose was determined for 3 days continuously when the mice were 7 weeks old. The mice were grouped into the treatment group and the control group (6 animals per group) according to the results determined. The treatment groups were administered orally with compound E9, G0 and F7 (psoromic acid) (100 mg/kg), and the control group was administered orally with a solution of 0.1% Tween 80 (blank control), once daily for 8 days. Fasting blood glucose in mice was determined at the end of experiment.
# ob/ob mice [3] = test: Effect of F7 on liver weight, liver triglyceride, ALT and AST; assay type: in vivo; details: oral 50 mg/kg once daily for 3 weeks
# Description: as §1, with “When” for “Fasting blood glucose was determined for 3 days continuously when”, “old, the ob/ob” for “old. The”, “(9” for “(8”, “fasting blood glucose.” for “results determined.”, “After 3 weeks, the animals” for “Fasting Blood Glucose levels of mice”, “sacrificed and the liver was excised and weighed.” for “measured regularly.”
# The triglyceride level in the liver was measured.
# [4] = test system: diet-induced obese (DIO) mice; test: Effect of F7 on body weight of diet-induced obese mice; assay type: in vivo, C57BL/6J mice; details: for Body weight: oral 50 mg/kg daily; for Body weight reduction compared with the model control group: oral 50 mg/kg
# Description: Male C57BL/6J mice were maintained a SPF facility (temperature: 22-24° C., humidity: 45-80%, illumination: 150-300 Lx, 12/12-hour light/dark cycle). When the mice were 4 weeks old, they were fed with a high-fat diet (purchased from Research Diets Inc. (USA), D12492i, fat content is 60%). After 12 weeks, diet-induced obese (DIO) mice model was established. Another group of mice fed with normal diet (D12450Bi, fat content is 10%) was used as a normal control group. The DIO mice were divided into two group according to body weights, and administrated orally F7 (50 mg/kg) or 0.1% Tween80 (the model control group) respectively, every afternoon just before black out for 5 weeks. The body weights of mice were measured daily, and the effect of Compound F7 on body weight was observed.
# [5] = Properties of psoromic acid (solubility, acidity, stability); assay type: physicochemical
# Description: As a preferred embodiment of the present invention, the compound of the present invention is psoromic acid, F7, a white needle crystal, which is odorless, faintly bitter, with melting point of 265-266° C.
# ob/ob mice [6] = test: Effect of F7 on glucose and lipid metabolic disorder, serum biochemical indicators; assay type: in vivo; details: oral 50 mg/kg once daily for 3 weeks
# Description: Genetic spontaneous diabetes ob/ob mice were purchased from Jackson (USA), and maintained in a SPF facility (temperature: 22-24° C., humidity: 45-80%, illumination: 150-300 Lx, 12/12-hour light/dark cycle). Fasting blood glucose was determined daily for 3 days continuously when the mice were 7 weeks old. The mice were grouped into the treatment group and the control group (8 animals per group) according to the results determined. The two groups were administered orally with compound F7 (50 mg/kg) and a solution of 0.1% Tween 80 respectively, once daily for 3 weeks. Another group of C57 mice was used as normal control. At the end of administration, blood samples were collected in each group, the serum was separated and serum biochemical indicators were detected.
compound,measurement,setting,value
"COc1cc(C(=O)O)c2c(c1C)OC(=O)c1c(C)cc(O)c(C=O)c1O2 [Compound F7, 4-Formyl-3-hydroxy-8-methoxy-1,9-dimethyl-11-oxo-11H-dibenzo[b,e][1,4]dioxepine-6-carboxylic acid]",Fasting Blood Glucose,ob/ob mice [1]; 0 day,14.0 ± 1.8 mM
same,Fasting Blood Glucose,ob/ob mice [1]; 4 day,11.3 ± 2.5 mM
same,Fasting Blood Glucose,ob/ob mice [1]; 8 day,11.1 ± 2.0 mM
same,Fasting Blood Glucose,ob/ob mice [1]; 11 day,8.8 ± 1.5 mM
same,Fasting Blood Glucose,ob/ob mice [1]; 15 day,8.5 ± 2.5 mM
same,Fasting Blood Glucose,"ob/ob mice [1]; 21 day, 50 mg/kg",7.4 mM and 7.4 ± 1.3 mM
same,Reduction of fasting blood glucose,ob/ob mice [1]; day 15 after administration,42%
same,Fasting Blood Glucose,ob/ob mice [2]; before administration,11.94 ± 1.50 mM
same,Fasting blood glucose change in words,"ob/ob mice [2]; dosed continuously for 8 days, P<0.05",reduced statistically significant
same,Fasting Blood Glucose,"ob/ob mice [2]; oral 100 mg/kg once daily, after 8 days treatment",8.12 ± 1.04 mM
same,Liver TG,ob/ob mice [3],106.9 ± 35.6 µmol/g
same,Liver Weight,ob/ob mice [3],2.67 ± 0.57 g
same,Weight of other organs or its ratio to body weight,ob/ob mice [3],no effect
same,ALT,ob/ob mice [3]; serum,161.5 ± 28.4 U/L
same,AST,ob/ob mice [3]; serum,197.3 ± 24.6 U/L
same,Body weight,[4]; 0 day,39.2 ± 3.8 g
same,Body weight,[4]; 7 day,36.4 ± 3.8 g
same,Body weight,[4]; 14 day,36.5 ± 4.2 g
same,Body weight,[4]; 21 day,36.2 ± 3.9 g
same,Body weight,[4]; 28 day,36.1 ± 2.6 g
same,Body weight,[4]; 35 day,35.8 ± 2.0 g
same,Body weight reduction compared with the model control group,[4]; 1 week after administration,2 g
same,Body weight reduction compared with the model control group,[4]; 5 weeks after administration,4.5 g
same,Solubility in organic solvents,"[5]; DMSO, ethanol, acetone and ethyl acetate",soluble in organic solvents
same,pH (acidic),[5]; in water,3-4
same,Stability,[5]; room temperature,stable at room temperature
same,Solubility in water,[5]; water,slightly soluble in water
same,"CHOL (total cholesterol), serum",ob/ob mice [6],6.0 ± 0.8 mmol/L
same,"FRU (fructosamine), serum",ob/ob mice [6],225.0 ± 40.4 µmol/L
same,"NFFA (unsaturated free fatty acid), serum",ob/ob mice [6],1.15 ± 0.17 mmol/L
same,"TG (triglycerides), serum",ob/ob mice [6],72.1 ± 11.1 mg/dL
same,"UA (uric acid), serum",ob/ob mice [6],316 ± 109 µM
